Measured values reported in publication PMC8151276, “An Integrated Approach toward NanoBRET Tracers for Analysis of GPCR Ligand Engagement” (Molecules, 2021).
One block for each compound: values may come before it.

Key:
Type in all cases: binding
[1] = molecular target: T1, HTR5A (Homo sapiens, UniProt P47898); test: NanoBRET screen HiBiT-HTR5A in HEK293
T1 construct: purchased Promega (in-house HiBiT-GPCR construct library, NanoBRET)
Protocol: (§1) Each tracer candidate was screened across the entire library of HiBiT-GPCR constructs using NanoBRET as the detection modality. As depicted in Figure 4A, the specificity of interactions was evaluated through decrease in BRET due to competitive displacement of a bound tracer by excess parental compound. Each tracer was analyzed for binding to each HiBiT-GPCR fusion in the absence and in the presence of competing parental compound. Briefly, HEK293 cells were transfected with HiBiT-GPCR constructs diluted into promoterless DNA to reduce expression and maximize translocation to the cell surface. Each tracer candidate was then screened at concentrations of 1 μM and 0.1 μM across cells expressing these fusions. Cells were treated for 1.5 h with tracer either alone or in the presence of 20 μM competing parental compound (i.e., control). BRET was measured upon addition of purified LgBiT and subsequent complementation with HiBiT genetically fused to a GPCR. The specificity of interactions was assessed through a decrease in BRET signal due to competitive displacement of the bound tracer. To further gauge the robustness of these interactions, the fold response over the control (i.e., BRETtracer/BRETcontrol) was calculated. We chose a 1.5-fold response, which translates to ≥7-fold signal over noise as the minimal threshold required to score an interaction as positive. […]. Below we highlight the screening results obtained for our exemplary fluorescent tracers based on Clozapine, Amitriptyline and AZD1283.
(§2) HiBiT-GPCR DNA constructs were diluted in 10 mM Tris pH 8 to a final concentration of 0.01 μg/μL, arrayed in 96-well plates and stored at −20 °C. For transfection, HEK293 cells were suspended in Opti-MEM (without phenol red) supplemented with 2% fetal bovine serum (Seradigm) and 100 units/mL penicillin–streptomycin (Gibco) at a final concentration of 220,000 cells/mL and dispensed into white 96-well plates at 90 μL/well. Subsequent transfections and screens were carried using an Agilent Bravo Automated Liquid Handling Platform. First, the 96-well HiBiT DNA arrays were diluted 25-fold in Opti-MEM (without serum or phenol red) to a final concentration of 0.0004 μg/μL and 20 μL of the diluted DNAs were transferred into new 96-well plates. Next, promoterless carrier DNA (1 μg/μL) was diluted 25-fold (0.04 μg/μL) and then dispensed into the diluted arrays at 20 μL/well. Following brief mixing, Viafect transfection reagent (Promega) diluted 16-fold into Opti-MEM was dispensed into the plates at 40 μL/well. After mixing by pipetting, plates were incubated for 10 min on the pipetting station deck. The DNA-transfection reagent complexes were then added to plates containing cells. To facilitate the screen, 10 μL of DNA-transfection reagent complexes were added in duplicates to the top 4 and bottom 4 rows, resulting in two identical 48-well arrays per plate. Plates with transfected cells were incubated for 18–20 h at 37 °C/5% CO2. A screen of each tracer across the entire library using two different concentrations requires duplicate plates of transfected cells. Depending on the number of tracers being screened, transfections can be scaled up using the same ratios. The next day, for each tracer, four 20× screening solutions in tracer dilution buffer (Promega) were prepared: two duplicates at final concentration of 20 μM and two duplicates at a final concentration of 2 μM. A competing unmodified compound was added to one of each duplicate at a final concentration of 400 μM. The four resulting solutions were diluted 4-fold in Opti-MEM without serum or phenol red to generate 5× solutions (5 µM and 0.5 µM tracer +/− 100 μM competing compound). To screen the library, a BioTek MultiFlo FX liquid dispenser was used to dispense 22.5 µL of tracer solution to the top 4 rows and 22.5 µL tracer + competing compound solution to the 4 bottom rows. Plates were briefly mixed on an orbital shaker and incubated for 1.5 h at room temperature. […]

[2] = molecular target: T2, P2RY2 (Homo sapiens, UniProt P41231); test: NanoBRET screen HiBiT-P2RY2 in HEK293
T2 construct: purchased Promega (in-house HiBiT-GPCR construct library, NanoBRET)
T2 sequence (P41231 whole entry): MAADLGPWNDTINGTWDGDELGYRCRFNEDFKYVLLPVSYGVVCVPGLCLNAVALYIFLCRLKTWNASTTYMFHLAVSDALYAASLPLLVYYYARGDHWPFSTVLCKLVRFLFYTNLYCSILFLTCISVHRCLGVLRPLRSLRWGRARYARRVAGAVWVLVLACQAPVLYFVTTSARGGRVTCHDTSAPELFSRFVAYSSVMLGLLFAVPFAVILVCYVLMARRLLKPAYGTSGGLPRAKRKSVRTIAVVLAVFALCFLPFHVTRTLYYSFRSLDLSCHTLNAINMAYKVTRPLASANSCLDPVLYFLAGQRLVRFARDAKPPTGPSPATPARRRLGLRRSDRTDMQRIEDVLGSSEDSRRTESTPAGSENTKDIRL
Protocol: as §1, §2

[3] = molecular target: T3, F2RL1 (Homo sapiens, UniProt P55085); test: NanoBRET screen HiBiT-F2RL1 in HEK293
T3 construct: purchased Promega (in-house HiBiT-GPCR construct library, NanoBRET)
T3 sequence (P55085 26-397): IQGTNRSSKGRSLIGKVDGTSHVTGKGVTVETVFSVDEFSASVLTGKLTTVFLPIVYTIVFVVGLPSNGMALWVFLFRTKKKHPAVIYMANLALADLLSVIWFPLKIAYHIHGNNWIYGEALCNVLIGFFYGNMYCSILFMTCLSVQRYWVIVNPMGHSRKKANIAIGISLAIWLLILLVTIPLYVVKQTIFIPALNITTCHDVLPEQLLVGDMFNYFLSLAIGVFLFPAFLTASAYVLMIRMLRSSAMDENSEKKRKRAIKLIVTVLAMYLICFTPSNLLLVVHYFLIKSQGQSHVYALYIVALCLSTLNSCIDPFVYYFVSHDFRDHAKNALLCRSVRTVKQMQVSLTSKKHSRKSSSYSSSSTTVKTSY
Protocol: as §1, §2

[4] = molecular target: T4, CCR1 (Homo sapiens, UniProt P32246); test: NanoBRET screen HiBiT-CCR1 in HEK293
T4 construct: purchased Promega (in-house HiBiT-GPCR construct library, NanoBRET)
T4 sequence (P32246 1-355): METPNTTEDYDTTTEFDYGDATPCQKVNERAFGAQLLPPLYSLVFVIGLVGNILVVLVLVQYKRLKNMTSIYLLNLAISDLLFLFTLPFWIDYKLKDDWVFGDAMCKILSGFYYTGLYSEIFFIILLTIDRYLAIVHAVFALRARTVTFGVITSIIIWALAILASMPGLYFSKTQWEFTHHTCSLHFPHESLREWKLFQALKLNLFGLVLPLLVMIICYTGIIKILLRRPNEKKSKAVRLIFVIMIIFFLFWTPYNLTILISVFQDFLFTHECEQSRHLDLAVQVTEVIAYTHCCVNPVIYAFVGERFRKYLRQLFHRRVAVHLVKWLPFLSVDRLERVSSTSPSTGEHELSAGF
Protocol: as §1, §2

[5] = molecular target: T5, HCRTR2 (Homo sapiens, UniProt O43614); test: NanoBRET screen HiBiT-HCRTR2 in HEK293
T5 construct: purchased Promega (in-house HiBiT-GPCR construct library, NanoBRET)
T5 sequence (O43614 1-444): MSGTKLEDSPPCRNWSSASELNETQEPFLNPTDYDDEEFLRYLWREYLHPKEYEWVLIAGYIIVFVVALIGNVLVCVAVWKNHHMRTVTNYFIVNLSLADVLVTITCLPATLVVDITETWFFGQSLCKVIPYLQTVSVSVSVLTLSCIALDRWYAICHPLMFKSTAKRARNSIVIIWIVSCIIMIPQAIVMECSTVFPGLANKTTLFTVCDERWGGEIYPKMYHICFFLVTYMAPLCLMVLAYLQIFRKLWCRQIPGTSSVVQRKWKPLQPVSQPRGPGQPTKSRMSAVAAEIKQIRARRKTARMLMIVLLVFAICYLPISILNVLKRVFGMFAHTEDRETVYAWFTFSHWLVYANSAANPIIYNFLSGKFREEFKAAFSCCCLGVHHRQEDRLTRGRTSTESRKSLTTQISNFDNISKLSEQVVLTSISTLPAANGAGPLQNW
Protocol: as §1, §2

T1 sequence (P47898 whole entry): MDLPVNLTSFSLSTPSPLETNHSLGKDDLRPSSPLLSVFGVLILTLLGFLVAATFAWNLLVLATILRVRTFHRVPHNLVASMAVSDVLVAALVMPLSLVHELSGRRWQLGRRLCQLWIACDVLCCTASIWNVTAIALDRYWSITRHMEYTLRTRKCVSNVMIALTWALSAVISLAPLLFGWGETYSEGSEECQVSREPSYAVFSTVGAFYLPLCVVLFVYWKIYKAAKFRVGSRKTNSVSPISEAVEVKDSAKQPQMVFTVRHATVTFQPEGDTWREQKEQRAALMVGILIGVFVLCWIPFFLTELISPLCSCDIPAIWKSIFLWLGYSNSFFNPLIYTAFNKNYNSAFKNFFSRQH

NanoBRET Fold Response ([1]; 0.1μM tracer): 0.89
NanoBRET Fold Response ([1]; 1μM tracer): 0.89
NanoBRET Fold Response ([2]; 0.1μM tracer): 0.93
NanoBRET Fold Response ([2]; 1μM tracer): 0.93
NanoBRET Fold Response ([3]; 0.1μM tracer): 1.21
NanoBRET Fold Response ([3]; 1μM tracer): 0.93
NanoBRET Fold Response ([4]; 0.1μM tracer): 0.90
NanoBRET Fold Response ([4]; 1μM tracer): 1.04
NanoBRET Fold Response ([5]; 0.1μM tracer): 1.04
NanoBRET Fold Response ([5]; 1μM tracer): 1.30
SMILES: COc1ccc2c(n1)c(CCNC(C)=O)cn2CCNC(=O)CCc1ccc2n1[B-](F)(F)[N+]1=C(c3ccc[nH]3)C=CC1=C2 [Azamelatonin-1-NB590]

SMILES: CC(C)N(CC[C@H](c1ccccc1)c1cc(CCNC(=O)c2ccc(CNC(=O)CCc3ccc4n3[B-](F)(F)[N+]3=C(c5ccc[nH]5)C=CC3=C4)cc2)ccc1O)C(C)C [Tolterodine-BZ-NB590]
NanoBRET Fold Response ([1]; HTR5A, tracer 0.1μM): 0.98
NanoBRET Fold Response ([1]; HTR5A, tracer 1μM): 1.03
NanoBRET Fold Response ([2]; P2RY2, tracer 0.1μM): 1.02
NanoBRET Fold Response ([2]; P2RY2, tracer 1μM): 1.04
NanoBRET Fold Response ([3]; F2RL1, tracer 0.1μM): 0.97
NanoBRET Fold Response ([3]; F2RL1, tracer 1μM): 0.98
NanoBRET Fold Response ([4]; CCR1, tracer 0.1μM): 1.09
NanoBRET Fold Response ([4]; CCR1, tracer 1μM): 0.96
NanoBRET Fold Response ([5]; HCRTR2, tracer 0.1μM): 0.91
NanoBRET Fold Response ([5]; HCRTR2, tracer 1μM): 1.06

SMILES: CN1CCN(C2=Nc3cc(Cl)ccc3Nc3ccc(CNC(=O)CCOCCOCCOCCOCCNC(=O)CCc4ccc5n4[B-](F)(F)[N+]4=C(c6ccc[nH]6)C=CC4=C5)cc32)CC1 [Clozapine-b-2-NB590]
NanoBRET Fold Response ([1]; HTR5A, 0.1μM tracer): 1.07
NanoBRET Fold Response ([1]; HTR5A, 1μM tracer): 1.35
NanoBRET Fold Response ([2]; P2RY2, 0.1μM tracer): 0.96
NanoBRET Fold Response ([2]; P2RY2, 1μM tracer): 1.00
NanoBRET Fold Response ([3]; F2RL1, 0.1μM tracer): 1.00
NanoBRET Fold Response ([3]; F2RL1, 1μM tracer): 1.06
NanoBRET Fold Response ([4]; CCR1, 0.1μM tracer): 1.04
NanoBRET Fold Response ([4]; CCR1, 1μM tracer): 0.98
NanoBRET Fold Response ([5]; HCRTR2, 0.1μM tracer): 0.99
NanoBRET Fold Response ([5]; HCRTR2, 1μM tracer): 0.98
